In the supplement of paper PMC10627819:

Tests used:
S. aureus DSM 20231 [1] = assay: fitness (endpoint OD595 vs no drug) (fraction); higher = more growth
Outline: (§1)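 Growth medium was TSB, LB Lennox or CY, and plates were kept at 37 °C. Inoculation was at OD595 0.01 in 384-well plates, at 30 µl per well or 55 µl for S. pneumoniae. OD595 was monitored every 30 min for 14 h and background-subtracted using the first reading. Fitness is the optical density on entering stationary phase divided by the robust mean of no-drug controls, with values capped at 1.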

S. aureus Newman = assay: Bliss interaction score (quartile over a dose matrix) (fitness difference); higher = more antagonism (negative = synergy)
Outline: (§2)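 At entry into stationary phase, OD595 was recorded and divided by the robust mean of the no-drug wells on that plate, with any value above 1 set to 1. This gives the fitness measure used throughout. Single-drug fitness was inferred from combination data, and the Bliss score, observed minus product-expected fitness, is shown as quartiles across technical, biological and donor/recipient replicates.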

B. subtilis 168 [2] = assay: as above
Outline: as §2

S. pneumoniae D39V [3] = assay: as above
Outline: as §2

S. aureus DSM 20231 [4] = assay: as above
Outline: as §2

S. pneumoniae D39V [5] = assay: fitness (endpoint OD595 vs no drug) (fraction); higher = more growth
Outline: as §1

B. subtilis 168 [6] = assay: as above
Outline: as §1
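Throughout, for Bliss interaction score (quartile over a dose matrix): first quartile when negative (synergy) and third quartile when positive (antagonism).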

CCC[C@@H]1C[C@@H](C(=O)N[C@@H]([C@H]2O[C@H](SC)[C@H](O)[C@@H](O)[C@H]2O)[C@@H](C)O)N(C)C1 [Lincomycin] + CCCCCCCCCC(=O)N[C@@H]1[C@H]([C@@H]([C@H](O[C@H]1OC2=C3C=C4C=C2OC5=C(C=C(C=C5)[C@H]([C@H]6C(=O)N[C@@H](C7=C(C(=CC(=C7)O)OC8[C@H]([C@H]([C@@H]([C@H](O8)CO)O)O)O)C9=C(C=CC(=C9)[C@H](C(=O)N6)NC(=O)[C@@H]4NC(=O)[C@@H]1C2=CC(=CC(=C2)OC2=C(C=CC(=C2)[C@H](C(=O)N[C@H](CC2=CC(=C(O3)C=C2)Cl)C(=O)N1)N)O)O)O)C(=O)O)O[C@H]1[C@@H]([C@H]([C@@H]([C@H](O1)CO)O)O)NC(=O)C)Cl)CO)O)O [Teicoplanin]
fitness, S. aureus DSM 20231 [1], main component drawn
Settings | partner 0.1562 µg/mL | partner 0.3125 µg/mL | partner 0.625 µg/mL
first compound 0.1 µg/mL | 0.913 | 0.979 | ≥ 1
first compound 0.2 µg/mL | 0.825 | 0.821 | 0.941

main component drawn
Settings | Bliss interaction score
B. subtilis 168 [2] | -0.111
S. aureus DSM 20231 [4] | 0.118
S. aureus Newman | 0.179
S. pneumoniae D39V [3] | -0.0397

CCC[C@@H]1C[C@@H](C(=O)N[C@@H]([C@H]2O[C@H](SC)[C@H](O)[C@@H](O)[C@H]2O)[C@@H](C)O)N(C)C1 [Lincomycin] + CN[C@H](CC(C)C)C(=O)N[C@H]1C(=O)N[C@@H](CC(N)=O)C(=O)N[C@H]2C(=O)N[C@H]3C(=O)N[C@H](C(=O)N[C@H](C(=O)O)c4cc(O)cc(O)c4-c4cc3ccc4O)[C@H](O)c3ccc(c(Cl)c3)Oc3cc2cc(c3O[C@@H]2O[C@H](CO)[C@@H](O)[C@H](O)[C@H]2O[C@H]2C[C@](C)(N)[C@H](O)[C@H](C)O2)Oc2ccc(cc2Cl)[C@H]1O [Vancomycin]
Settings | fitness
S. aureus DSM 20231 [1], first compound 0.1 µg/mL, partner 0.1875 µg/mL | 0.805
S. aureus DSM 20231 [1], first compound 0.1 µg/mL, partner 0.375 µg/mL | 0.873
S. aureus DSM 20231 [1], first compound 0.1 µg/mL, partner 0.75 µg/mL | 0.922
S. aureus DSM 20231 [1], first compound 0.2 µg/mL, partner 0.1875 µg/mL | 0.679
S. aureus DSM 20231 [1], first compound 0.2 µg/mL, partner 0.375 µg/mL | 0.701
S. aureus DSM 20231 [1], first compound 0.2 µg/mL, partner 0.75 µg/mL | 0.745
S. aureus DSM 20231 [1], first compound 0.4 µg/mL, partner 0.1875 µg/mL | 0.346
S. aureus DSM 20231 [1], first compound 0.4 µg/mL, partner 0.375 µg/mL | 0.336
S. aureus DSM 20231 [1], first compound 0.4 µg/mL, partner 0.75 µg/mL | 0.371
S. pneumoniae D39V [5], first compound 0.2 µg/mL, partner 0.03125 µg/mL | 0.706
S. pneumoniae D39V [5], first compound 0.2 µg/mL, partner 0.0625 µg/mL | 0.695
S. pneumoniae D39V [5], first compound 0.2 µg/mL, partner 0.125 µg/mL | 0.489
S. pneumoniae D39V [5], first compound 0.215 µg/mL, partner 0.125 µg/mL | 0.845
S. pneumoniae D39V [5], first compound 0.215 µg/mL, partner 0.25 µg/mL | 0.782
S. pneumoniae D39V [5], first compound 0.4 µg/mL, partner 0.03125 µg/mL | 0.61
S. pneumoniae D39V [5], first compound 0.4 µg/mL, partner 0.0625 µg/mL | 0.604
S. pneumoniae D39V [5], first compound 0.43 µg/mL, partner 0.125 µg/mL | 0.792
S. pneumoniae D39V [5], first compound 0.43 µg/mL, partner 0.25 µg/mL | 0.699
S. pneumoniae D39V [5], first compound 0.43 µg/mL, partner 0.5 µg/mL | 0.248
S. pneumoniae D39V [5], first compound 0.8 µg/mL, partner 0.03125 µg/mL | 0.279
S. pneumoniae D39V [5], first compound 0.8 µg/mL, partner 0.125 µg/mL | 0.191
S. pneumoniae D39V [5], first compound 0.86 µg/mL, partner 0.125 µg/mL | 0.356
S. pneumoniae D39V [5], first compound 0.86 µg/mL, partner 0.25 µg/mL | 0.311
S. pneumoniae D39V [5], first compound 0.86 µg/mL, partner 0.5 µg/mL | 0.0793

Settings | Bliss interaction score
B. subtilis 168 [2] | 0.0223
S. aureus DSM 20231 [4] | -0.0567
S. aureus Newman | 0.0733
S. pneumoniae D39V [3] | 0.117

CCC[C@@H]1C[C@@H](C(=O)N[C@@H]([C@H]2O[C@H](SC)[C@H](O)[C@@H](O)[C@H]2O)[C@@H](C)O)N(C)C1 [Lincomycin] + COc1cc(Cc2cnc(N)nc2N)cc(OC)c1OC [Trimethoprim]
fitness, B. subtilis 168 [6], one replicate
Settings | partner 0.1 µg/mL | partner 0.125 µg/mL | partner 0.2 µg/mL | partner 0.25 µg/mL | partner 0.4 µg/mL | partner 1 µg/mL | partner 2 µg/mL
first compound 0.1 µg/mL | – | 0.539 | – | 0.582 | – | 0.451 | 0.343
first compound 0.2 µg/mL | – | 0.633 | – | 0.619 | – | 0.319 | 0.174
first compound 0.4 µg/mL | 0.581 | – | 0.318 | – | 0.215 | 0.069 | 0.0635
first compound 0.8 µg/mL | 0.382 | 0.142 | 0.169 | – | 0.121 | – | –
first compound 1.6 µg/mL | 0.112 | 0.0455 | 0.0673 | – | 0.0597 | – | –

fitness
Settings | first compound 0.1 µg/mL | first compound 0.2 µg/mL | first compound 0.4 µg/mL | first compound 0.8 µg/mL | first compound 1.6 µg/mL
B. subtilis 168 [6], partner 0.125 µg/mL | – | – | 0.487 | – | –
B. subtilis 168 [6], partner 0.25 µg/mL | – | – | 0.465 | 0.263 | 0.0775
B. subtilis 168 [6], partner 0.5 µg/mL | 0.412 | 0.368 | 0.282 | 0.155 | 0.0565
S. aureus DSM 20231 [1], partner 0.125 µg/mL | 0.83 | 0.556 | 0.227 | – | –
S. aureus DSM 20231 [1], partner 0.25 µg/mL | 0.69 | 0.596 | – | – | –
S. aureus DSM 20231 [1], partner 0.5 µg/mL | 0.49 | 0.536 | 0.173 | – | –
S. aureus DSM 20231 [1], partner 1 µg/mL | 0.0776 | 0.0724 | 0.0567 | – | –

Settings | Bliss interaction score
B. subtilis 168 [2] | -0.231
S. aureus DSM 20231 [4] | 0.222
S. aureus Newman | 0.213
S. pneumoniae D39V [3] | -0.125
